Our source for the IC50 values is patent publication US8993756B2 (Merck Sharp & Dohme Corp., priority 2011, dated 2015).

pIC50: −log10 of the molar value.

The target in experiment [1] is JAK3 (Homo sapiens (Human), UniProt P52333). Description: Jak Biochemical HTRF Assay (JAK3). The note with it: recombinant GST-tagged catalytic domain, [ATP] 2.9 μM.
Experiment [2] addresses JAK2 (Homo sapiens (Human), UniProt O60674). Description: Jak Biochemical HTRF Assay (JAK2). The note with it: recombinant GST-tagged catalytic domain, [ATP] 8.5 μM. (In general: In TR-FRET formats the signal depends on donor and acceptor labels being close together.)

JAK3, sequence (P52333 822-1111): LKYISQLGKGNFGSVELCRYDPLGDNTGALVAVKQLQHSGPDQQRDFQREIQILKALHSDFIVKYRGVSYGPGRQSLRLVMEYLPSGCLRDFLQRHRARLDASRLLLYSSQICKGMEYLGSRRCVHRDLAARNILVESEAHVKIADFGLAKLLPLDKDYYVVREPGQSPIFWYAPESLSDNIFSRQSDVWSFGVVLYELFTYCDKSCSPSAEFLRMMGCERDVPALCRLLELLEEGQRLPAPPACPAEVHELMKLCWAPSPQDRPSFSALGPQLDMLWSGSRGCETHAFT
JAK2, sequence (O60674 849-1124): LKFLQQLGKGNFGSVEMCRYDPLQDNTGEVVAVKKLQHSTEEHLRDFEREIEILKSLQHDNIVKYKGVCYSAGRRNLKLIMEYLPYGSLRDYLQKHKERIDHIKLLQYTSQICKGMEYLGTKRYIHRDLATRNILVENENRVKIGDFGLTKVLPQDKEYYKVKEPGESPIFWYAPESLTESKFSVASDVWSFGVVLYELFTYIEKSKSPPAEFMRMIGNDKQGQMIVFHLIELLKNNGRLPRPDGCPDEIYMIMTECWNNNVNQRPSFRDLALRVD

Regarding `CCOC(=O)c1c[nH]c2ncnc(-c3ccc(-n4cccn4)cc3)c12` [Example 1-94, ethyl 4-[4-(1H-pyrazol-1-yl)phenyl]-7H-pyrrolo[2,3-d]pyrimidine-5-carboxylate], the pIC50 (as a rule, −log10 of the IC50, conventionally taken in molar units) was 8.12 in experiment [1] and 6.92 in experiment [2].

For the compound `CCOC(=O)c1c[nH]c2ncnc(-c3cccc(N4CCS(=O)(=O)CC4)c3)c12` [Example 1-95, ethyl 4-[3-(1,1-dioxidothiomorpholin-4-yl)phenyl]-7H-pyrrolo[2,3-d]pyrimidine-5-carboxylate], the pIC50 was 6.30 to 8.00 in experiment [1] (given as range class) and < 6.30 in experiment [2] (given as range class).

Consider `CCOC(=O)c1c[nH]c2ncnc(-c3cccc(CN4CCOCC4)c3)c12` [Example 1-96, ethyl 4-[3-(morpholin-4-ylmethyl)phenyl]-7H-pyrrolo[2,3-d]pyrimidine-5-carboxylate], for which the pIC50 in experiment [1] (given as range class) is 6.30 to 8.00; in experiment [2] (given as range class), < 6.30.

Consider `CCOC(=O)c1c[nH]c2ncnc(-c3ccc(N4CCS(=O)(=O)CC4)cc3)c12` [Example 1-97, ethyl 4-[4-(1,1-dioxidothiomorpholin-4-yl)phenyl]-7H-pyrrolo[2,3-d]pyrimidine-5-carboxylate], for which the pIC50 was 8.17 in experiment [1] and 6.46 in experiment [2].

On to `CCOC(=O)c1c[nH]c2ncnc(C3=CCOCC3)c12` [Example 1-98, ethyl 4-(3,6-dihydro-2H-pyran-4-yl)-7H-pyrrolo[2,3-d]pyrimidine-5-carboxylate], for which the pIC50 in experiment [1] (given as range class) was 6.30 to 8.00; in experiment [2] (given as range class), < 6.30.

On to `CCOC(=O)c1c[nH]c2ncnc(-c3cnn(CCOC)c3)c12` [Example 1-99, ethyl 4-[1-(2-methoxyethyl)-1H-pyrazol-4-yl]-7H-pyrrolo[2,3-d]pyrimidine-5-carboxylate], for which the pIC50 is 6.30 to 8.00 in experiment [1] (given as range class) and < 6.30 in experiment [2] (given as range class).

Turning to `CCOC(=O)c1c[nH]c2ncnc(-c3ccc(C(=O)NC4CCOC4)cc3)c12` (stereo not drawn) [Example 1-100, ethyl 4-[4-(tetrahydrofuran-3-ylcarbamoyl)phenyl]-7H-pyrrolo[2,3-d]pyrimidine-5-carboxylate], the pIC50 in experiment [1] (given as range class) was 6.30 to 8.00; in experiment [2] (given as range class), < 6.30.

`CCOC(=O)c1c[nH]c2ncnc(-c3cccc(N(C)S(C)(=O)=O)c3)c12` [Example 1-102, ethyl 4-{3-[methyl(methylsulfonyl)amino]phenyl}-7H-pyrrolo[2,3-d]pyrimidine-5-carboxylate]: the pIC50 is 6.30 to 8.00 in experiment [1] (given as range class) and < 6.30 in experiment [2] (given as range class).

As to `CCOC(=O)c1c[nH]c2ncnc(-c3cccc(-n4cccn4)c3)c12` [Example 1-103, ethyl 4-[3-(1H-pyrazol-1-yl)phenyl]-7H-pyrrolo[2,3-d]pyrimidine-5-carboxylate], the pIC50 in experiment [1] (given as range class) was 6.30 to 8.00; in experiment [2] (given as range class) it was < 6.30.

Consider `CCOC(=O)c1c[nH]c2ncnc(-c3ccc(CC#N)nc3)c12` [Example 1-104, ethyl 4-[6-(cyanomethyl)pyridin-3-yl]-7H-pyrrolo[2,3-d]pyrimidine-5-carboxylate], for which the pIC50 in experiment [1] (given as range class) is 6.30 to 8.00; in experiment [2] (given as range class) it was < 6.30.

As for `CCOC(=O)c1c[nH]c2ncnc(-c3cccc(C(C)(C)O)c3)c12` [Example 1-105, ethyl 4-[3-(1-hydroxy-1-methylethyl)phenyl]-7H-pyrrolo[2,3-d]pyrimidine-5-carboxylate], the pIC50 in experiment [1] (given as range class) is 6.30 to 8.00; in experiment [2] (given as range class), < 6.30.

Turning to `CCOC(=O)c1c[nH]c2ncnc(-c3cncc(CO)c3)c12` [Example 1-106, ethyl 4-[5-(hydroxymethyl)pyridin-3-yl]-7H-pyrrolo[2,3-d]pyrimidine-5-carboxylate], the pIC50 in experiment [1] (given as range class) is 6.30 to 8.00; in experiment [2] (given as range class), < 6.30.

Consider `CCOC(=O)c1c[nH]c2ncnc(-c3ccc(C(C)(C)O)cc3)c12` [Example 1-107, ethyl 4-[4-(1-hydroxy-1-methylethyl)phenyl]-7H-pyrrolo[2,3-d]pyrimidine-5-carboxylate], for which the pIC50 in experiment [1] (given as range class) and in experiment [2] (given as range class) was 6.30 to 8.00 each time.

Consider `CCCOC(=O)c1c[nH]c2ncnc(-c3ccc4cn(C)nc4c3)c12` [Example 2-1, Propyl 4-(2-methyl-2H-indazol-6-yl)-7H-pyrrolo[2,3-d]pyrimidine-5-carboxylate], for which the figures for the pIC50 in experiment [1] and in experiment [2] were 8.05 and 6.82, respectively.

Turning to `C=CCOC(=O)c1c[nH]c2ncnc(-c3ccc4cn(C)nc4c3)c12` [Example 2-2, Prop-2-en-1-yl 4-(2-methyl-2H-indazol-6-yl)-7H-pyrrolo[2,3-d]pyrimidine-5-carboxylate], the pIC50 in experiment [1] (given as range class) and in experiment [2] (given as range class) was 6.30 to 8.00 each time.

For the compound `CCOC(=O)c1c[nH]c2ncnc(-c3cccc(NCC(F)(F)F)c3)c12` [Example 3-1, Ethyl 4-{3-[(2,2,2-trifluoroethyl)amino]phenyl}-7H-pyrrolo[2,3-d]pyrimidine-5-carboxylate], the results for the pIC50 in experiment [1] (given as range class) and in experiment [2] (given as range class) were 6.30 to 8.00 and < 6.30, respectively.

Turning to `CCOC(=O)c1c[nH]c2ncnc(-c3ccc(C)c(NCC(F)(F)F)c3)c12` [Example 3-2, ethyl 4-{4-methyl-3-[(2,2,2-trifluoroethyl)amino]phenyl}-7H-pyrrolo[2,3-d]pyrimidine-5-carboxylate], the pIC50 was 6.30 to 8.00 in experiment [1] (given as range class) and < 6.30 in experiment [2] (given as range class).

Turning to `C=C(C)C(=O)Nc1cccc(-c2ncnc3[nH]cc(C(=O)OCC)c23)c1` [Example 4-1, Ethyl-4-{3-[(2-methylacryloyl)amino]phenyl}-7H-pyrrolo[2,3-d]pyrimidine-5-carboxylate], the pIC50 was 9.82 in experiment [1] and < 5.83 in experiment [2].

For `C=C(C)C(=O)Nc1cccc(-c2ncnc3[nH]cc(C(=O)OCC)c23)c1F` [Example 4-2, Ethyl 4-{2-fluoro-3-[(2-methylacryloyl)amino]phenyl}-7H-pyrrolo[2,3-d]pyrimidine-5-carboxylate], the pIC50 in experiment [1] is 8.40; in experiment [2], < 5.83.

Consider `C=C(C)C(=O)Nc1cncc(-c2ncnc3[nH]cc(C(=O)OCC)c23)c1` [Example 4-3, Ethyl 4-{5-[(2-methylacryloyl)amino]pyridin-3-yl}-7H-pyrrolo[2,3-d]pyrimidine-5-carboxylate], for which the pIC50 in experiment [1] is 10.07; in experiment [2], < 5.83.

Regarding `C=C(C)C(=O)Nc1cc(-c2ncnc3[nH]cc(C(=O)OCC)c23)cc(OC)n1` [Example 4-4, Ethyl 4-{2-methoxy-6-[(2-methylacryloyl)amino]pyridin-4-yl}-7H-pyrrolo[2,3-d]pyrimidine-5-carboxylate], the results for the pIC50 in experiment [1] and in experiment [2] were 10.31 and < 5.83, respectively.

Turning to `C=CC(=O)Nc1cccc(-c2ncnc3[nH]cc(C(=O)OCC)c23)c1` [Example 4-5, ethyl 4-[3-(acryloylamino)phenyl]-7H-pyrrolo[2,3-d]pyrimidine-5-carboxylate], the pIC50 in experiment [1] is 10.40; in experiment [2], 6.10.

Take `C/C=C/C(=O)Nc1cccc(-c2ncnc3[nH]cc(C(=O)OCC)c23)c1` [Example 4-6, ethyl 4-{3-[(2E)-but-2-enoylamino]phenyl}-7H-pyrrolo[2,3-d]pyrimidine-5-carboxylate]: the pIC50 in experiment [1] is 8.80; in experiment [2] it was 6.32.

For the compound `CCOC(=O)c1c[nH]c2ncnc(-c3cccc(NC(=O)CC)c3)c12` [Example 4-7, ethyl 4-[3-(propanoylamino)phenyl]-7H-pyrrolo[2,3-d]pyrimidine-5-carboxylate], the pIC50 was 6.30 to 8.00 in experiment [1] (given as range class) and < 6.30 in experiment [2] (given as range class).
